This assay deals with SARS-CoV-2 3CLpro (Severe acute respiratory syndrome coronavirus 2, UniProt P0DTD1). Kind of assay: biochemical. In kind it is biochemical. More on the design: Replicate_1 / Replicate_2 / mean / mean (LOPAC_screen_w_protease): unit not given here. The conditions noted are these: for inhibition at 5 µM: 4 h.
The mark [1] stands for this setting: sheet LOPAC_screen_w_protease, LOPAC1280 primary screen with protease, 5 µM compound, mean of the two replicates, read-out: mean.
The mark [2] stands for this setting: sheet LOPAC_screen_w_protease, LOPAC1280 primary screen with protease, 5 µM compound, replicate 1, read-out: Replicate_1.
The mark [3] stands for this setting: sheet LOPAC_screen_w_protease, LOPAC1280 primary screen with protease, 5 µM compound, replicate 2, read-out: Replicate_2.
Setting [4] is: sheet LOPAC_screen_w_protease, primary screen of LOPAC1280 at 5 µM with protease, mean of the two replicates.
Where [5] appears, read: sheet LOPAC_screen_w_protease, primary screen of LOPAC1280 at 5 µM with protease, replicate 1.
Setting [6] is: sheet LOPAC_screen_w_protease, primary screen of LOPAC1280 at 5 µM with protease, replicate 2.
The mark [7] stands for this setting: sheet LOPAC_screen_w_protease, primary screen of LOPAC1280 at 5 µM with protease, mean of the two replicates, read-out: mean.
The mark [8] stands for this setting: sheet LOPAC_screen_w_protease, primary screen of LOPAC1280 at 5 µM with protease, replicate 1, read-out: Replicate_1.
Where [9] appears, read: sheet LOPAC_screen_w_protease, primary screen of LOPAC1280 at 5 µM with protease, replicate 2, read-out: Replicate_2.
[10] abbreviates: sheet LOPAC_screen_w_protease, primary screen with protease, compound at 5 µM, mean of two replicates, read-out: mean.
The mark [11] stands for this setting: sheet LOPAC_screen_w_protease, primary screen with protease, compound at 5 µM, replicate 1, read-out: Replicate_1.
[12] abbreviates: sheet LOPAC_screen_w_protease, primary screen with protease, compound at 5 µM, replicate 2, read-out: Replicate_2.
The mark [13] stands for this setting: LOPAC1280 primary screen with protease, 5 µM compound, replicate 1, read-out: Replicate_1 (LOPAC_screen_w_protease).
Where [14] appears, read: LOPAC1280 primary screen with protease, 5 µM compound, replicate 2, read-out: Replicate_2 (LOPAC_screen_w_protease).
[15] abbreviates: LOPAC1280 primary screen with protease, 5 µM compound, mean of two replicates.

We go through 31 compounds from publication PMC7587356, “High-Throughput Screening for Inhibitors of the SARS-CoV-2 Protease Using a FRET-Biosensor” (Molecules, 2020).

Structures can show the parent of a compound that is named as a salt. Where two headings read alike, the source gives them in different places.

`CSc1ccc2c(c1)C(N1CCN(C)CC1)Cc1ccccc1S2` (stereo not drawn) [Methiothepin mesylate]: the inhibition at 5 µM reads like this: under setting [1], 4.09%; under setting [2], 3.76%; under setting [3], 4.42%.
With `COc1ccccc1CNCCCCCCNCCCCCCCCNCCCCCCNCc1ccccc1OC.Cl.Cl.Cl.Cl` [Methoctramine tetrahydrochloride], under setting [4], the mean was 4.069. This compound also registered a Replicate_1 under setting [5] of 5.6561. The Replicate_2 under setting [6] stood at 2.482.
As for `COc1ccc(OC)c(C(O)C(C)N)c1` (stereo not drawn) [Methoxamine hydrochloride], the inhibition at 5 µM is, setting by setting: under setting [7], 3.32%; under setting [8], 2.74%; under setting [9], 3.89%.
As to `COC(=O)c1cc2c(cn1)[nH]c1ccccc12` [Methyl beta-carboline-3-carboxylate], under setting [4], the mean was determined as 3.265. The Replicate_1 under setting [5] is given as 4.868. The Replicate_2 under setting [6] amounted to 1.662.
Consider `CNC(=O)OCC[N+](C)(C)C` [Methylcarbamylcholine chloride], for which the inhibition at 5 µM runs as follows: under setting [10], 3%; under setting [11], 4.73%; under setting [12], 1.26%.
Regarding `CC[C@@H](CO)NC(=O)[C@@H]1C=C2c3cccc4[nH]cc(c34)C[C@H]2N(C)C1` [Methylergonovine maleate], the inhibition at 5 µM runs as follows: (read-out: Replicate_1) 1.27%; (read-out: Replicate_2) 0.625%; (read-out: mean) 0.949%.
For the compound `Cc1ccccc1N1C(=O)c2cc(S(N)(=O)=O)c(Cl)cc2NC1C` (stereo not drawn) [Metolazone], the inhibition at 5 µM runs as follows: under setting [1], 5.24%; under setting [2], 4.55%; under setting [3], 5.92%.
For the compound `Cc1ccccc1/C=C/C1=NCCN1` [Metrazoline oxalate], the inhibition at 5 µM reads like this: under setting [13], 2.83%; under setting [14], 0.879%. For the same compound, where the note is “LOPAC1280 primary screen with protease, 5 µM compound, mean of the two replicates”, the “mean (LOPAC_screen_w_protease)” value is 1.853.
As to `Cc1ccccc1CNc1ncnc2c1ncn2[C@@H]1O[C@H](CO)[C@@H](O)[C@H]1O` [Metrifudil], the inhibition at 5 µM reads like this: under setting [1], 4.56%; under setting [2], 4.09%; under setting [3], 5.03%.
For `CC[C@H](C)C(=O)O[C@H]1CCC=C2C=C[C@H](C)[C@H](CC[C@@H]3C[C@@H](O)CC(=O)O3)[C@H]21` [Mevastatin] the same measures were 4.58%, 3.98% and 5.17%.
The corresponding values for `COCC(=O)O[C@]1(CCN(C)CCCc2nc3ccccc3[nH]2)CCc2cc(F)ccc2[C@@H]1C(C)C` [Mibefradil dihydrochloride] are 4.42%, 3.3% and 5.54%.
For `CC#C[C@]1(O)CC[C@H]2[C@@H]3CCC4=CC(=O)CCC4=C3[C@@H](c3ccc(N(C)C)cc3)C[C@@]21C` [Mifepristone] the same measures were 4.62%, 3.53% and 5.7%.
Consider `Cc1[nH]c(=O)c(C#N)cc1-c1ccncc1` [Milrinone], for which the inhibition at 5 µM reads like this: under setting [1], 4.26%; under setting [2], 3.12%; under setting [3], 5.4%.
The corresponding values for `CN(C)c1ccc(O)c2c1C[C@H]1C[C@H]3[C@H](N(C)C)C(O)=C(C(N)=O)C(=O)[C@@]3(O)C(O)=C1C2=O` [Minocycline hydrochloride] are 5.31%, 4.79% and 5.84%.
As to `Nc1cc(N2CCCCC2)nc(N)[n+]1[O-]` [Minoxidil], the inhibition at 5 µM under setting [10] was 2.95%, the inhibition at 5 µM under setting [11] amounted to 3.92% and the inhibition at 5 µM under setting [12] was found to be 1.98%.
For the compound `NC(=O)c1ncn([C@@H]2O[C@H](CO)[C@@H](O)[C@H]2O)c1O` [Mizoribine], the inhibition at 5 µM is 4.8% under setting [1], 4.56% under setting [2] and 5.05% under setting [3].
Turning to `CCOC(=O)[N-]c1cn(N2CCOCC2)n[o+]1` [Molsidomine], the inhibition at 5 µM under setting [10] was 2.83%, the inhibition at 5 µM under setting [11] was 1.44% and the inhibition at 5 µM under setting [12] was 4.23%.
As to `CCOC(=O)C1=C(C)NC(=S)NC1c1cccc(O)c1` (stereo not drawn) [Monastrol], the inhibition at 5 µM worked out at 6.04% under setting [1], 5.54% under setting [2] and 6.55% under setting [3].
`O=c1c(O)c(-c2ccc(O)cc2O)oc2cc(O)cc(O)c12` [Morin]: the inhibition at 5 µM is 6.85% (read-out: Replicate_1), 5.63% (read-out: Replicate_2) and 6.24% (read-out: mean).
For the compound `CC(=O)Oc1cc(C(C)C)c(OCCN(C)C)cc1C` [Moxisylyte hydrochloride], the inhibition at 5 µM was 3.55% under setting [7], 4.09% under setting [8] and 3.01% under setting [9].
Take `COc1nc(C)nc(Cl)c1NC1=NCCN1.Cl` [Moxonidine hydrochloride]: the mean under setting [4] is on record as 3.905. The Replicate_1 under setting [5] was found to be 2.314. Besides, the Replicate_2 under setting [6] turned out to be 5.497.
In the case of `Br.NCc1cc(O)no1` [Muscimol hydrobromide], the mean (sheet LOPAC_screen_w_protease, primary screen with protease, 5 µM, mean of two replicates) stood at 0.06352. Under “sheet LOPAC_screen_w_protease, primary screen with protease, 5 µM, replicate 1”, this compound displayed a Replicate_1 of 2.752. Further, under “sheet LOPAC_screen_w_protease, primary screen with protease, 5 µM, replicate 2”, the Replicate_2 is recorded as -2.625.
Take `Nc1ccc(CCNc2ncnc3c2ncn3[C@@H]2O[C@H](CO)[C@@H](O)[C@H]2O)cc1` [N6-2-(4-Aminophenyl)ethyladenosine]: the mean under setting [4] stood at 3.204. This compound also came in with a Replicate_1 under setting [5] of 3.6817. The compound also had a Replicate_2 under setting [6] of 2.726.
On to `OC[C@H]1O[C@@H](n2cnc3c(NCCc4ccccc4)ncnc32)[C@H](O)[C@@H]1O` [N6-2-Phenylethyladenosine], for which the mean (sheet LOPAC_screen_w_protease, LOPAC1280 primary screen at 5 µM, with protease, mean of the two replicates) stood at 0.6761. Further, the Replicate_1 (sheet LOPAC_screen_w_protease, LOPAC1280 primary screen at 5 µM, with protease, replicate 1) amounted to 1.884. Further, the Replicate_2 (sheet LOPAC_screen_w_protease, LOPAC1280 primary screen at 5 µM, with protease, replicate 2) is listed as -0.5317.
For the setting “sheet LOPAC_screen_w_protease, LOPAC1280 at 5 µM, mean of two replicates”, `CCNC(=O)[C@H]1O[C@@H](n2cnc3c(NCc4ccccc4)ncnc32)[C@H](O)[C@@H]1O` [N6-Benzyl-5'-N-ethylcarboxamidoadenosine] showed a mean of 1.239. For the setting “sheet LOPAC_screen_w_protease, LOPAC1280 at 5 µM, replicate 1”, the Replicate_1 is -0.1675. The Replicate_2 (sheet LOPAC_screen_w_protease, LOPAC1280 at 5 µM, replicate 2) amounted to 2.645.
`OC[C@H]1O[C@@H](n2cnc3c(NC4CCCCC4)ncnc32)[C@H](O)[C@@H]1O` [N6-Cyclohexyladenosine]: the “mean (LOPAC_screen_w_protease)” value under setting [15] is listed as 1.471. Also, the “Replicate_1 (LOPAC_screen_w_protease)” value (LOPAC1280 primary screen with protease, 5 µM compound, replicate 1) stood at 2.337. Also, the “Replicate_2 (LOPAC_screen_w_protease)” value (LOPAC1280 primary screen with protease, 5 µM compound, replicate 2) is recorded as 0.606.
With `Cn1cnc2c(NC3CCCC3)ncnc21` [N6-Cyclopentyl-9-methyladenine], the mean under setting [4] is 3.328. The Replicate_1 under setting [5] is recorded as 3.176. For the same compound, the Replicate_2 under setting [6] is reported as 3.4795.
`OC[C@H]1O[C@@H](n2cnc3c(NC4CCCC4)ncnc32)[C@H](O)[C@@H]1O` [N6-Cyclopentyladenosine]: the inhibition at 5 µM was 2.13% (sheet LOPAC_screen_w_protease, primary screen with protease, mean of two replicates, read-out: mean); 1.59% (sheet LOPAC_screen_w_protease, primary screen with protease, replicate 1, read-out: Replicate_1); 2.67% (sheet LOPAC_screen_w_protease, primary screen with protease, replicate 2, read-out: Replicate_2).
Turning to `CNc1ncnc2c1ncn2[C@@H]1O[C@H](CO)[C@@H](O)[C@H]1O` [N6-Methyladenosine], the mean (sheet LOPAC_screen_w_protease, primary screen with protease, compound at 5 µM, mean of two replicates) is recorded as 2.9788. For the same compound, the Replicate_1 (sheet LOPAC_screen_w_protease, primary screen with protease, compound at 5 µM, replicate 1) worked out at 2.994. Further, the Replicate_2 (sheet LOPAC_screen_w_protease, primary screen with protease, compound at 5 µM, replicate 2) is 2.964.
For `OC[C@H]1O[C@@H](n2cnc3c(Nc4ccccc4)ncnc32)[C@H](O)[C@@H]1O` [N6-Phenyladenosine], the inhibition at 5 µM reads like this: under setting [13], 2.83%; under setting [14], 0.0632%. Further, the “mean (LOPAC_screen_w_protease)” value under setting [15] worked out at 1.447.
Regarding `CN(C)C(=O)N=NC(=O)N(C)C` [N,N,N',N'-Tetramethylazodicarboxamide], the “mean (LOPAC screen with protease)” value (sheet LOPAC_screen_w_protease, primary screen at 5 µM, mean of two replicates) is on record as 22.0405. Moreover, the “Replicate_1 (LOPAC screen with protease)” value (sheet LOPAC_screen_w_protease, primary screen at 5 µM, replicate 1) stood at 23.2519. The “Replicate_2 (LOPAC screen with protease)” value (sheet LOPAC_screen_w_protease, primary screen at 5 µM, replicate 2) is given as 20.8292.
